In ChEMBL document CHEMBL3244082, “5-allyl-9-oxobenzomorphans. 3. Potent narcotic antagonists and analgesics-antagonists in the series of substituted 2',9beta-dihydroxy-6,7-benzomorphans” (1977):

Columns and labels:
Format in all cases: functional
Mus musculus [1] = test: Narcotic antagonist activity in mouse assessed as inhibition of oxymorphone-induced straub tail response at 5 mg/kg, sc administered 10 mins post oxymorphone-challenge relative to control; conditions: route subcutaneous
Mus musculus [2] = test: Analgesic activity in sc dosed mouse assessed as reduction in phenylquinone-induced writhing administered 15 mins prior to phenylquinone-challenge measured up to 10 mins
Mus musculus [3] = test: Narcotic antagonist activity in sc dosed mouse assessed as inhibition of oxymorphone-induced straub tail response administered 10 mins post oxymorphone-challenge
Mus musculus [4] = test: Analgesic activity in mouse assessed as reduction in phenylquinone-induced writhing at 20 mg/kg, sc administered 15 mins prior to phenylquinone-challenge measured up to 10 mins relative to control; design: scale not given: the % may be the effect or the level left; conditions: route subcutaneous
Mus musculus [5] = test: Narcotic antagonist activity in mouse assessed as inhibition of oxymorphone-induced straub tail response at 2.5 mg/kg, sc administered 10 mins post oxymorphone-challenge relative to control; conditions: route subcutaneous
Mus musculus [6] = test: Analgesic activity in mouse assessed as reduction in phenylquinone-induced writhing at 40 mg/kg, sc administered 15 mins prior to phenylquinone-challenge measured up to 10 mins relative to control; design: scale not given: the % may be the effect or the level left; conditions: route subcutaneous
Mus musculus [7] = test: Analgesic activity in po dosed mouse by hot plate test
Mus musculus [8] = test: Analgesic activity in po dosed mouse assessed as increase in response time by hot plate test relative to control
Mus musculus [9] = test: Analgesic activity in mouse assessed as reduction in phenylquinone-induced writhing at 10 mg/kg, sc administered 15 mins prior to phenylquinone-challenge measured up to 10 mins relative to control; design: scale not given: the % may be the effect or the level left; conditions: route subcutaneous
Rattus norvegicus [10] = test: Narcotic antagonist activity in sc dosed rat assessed as reversal of morphine-induced analgesia by tail-flick test
Rattus norvegicus [11] = test: Analgesic activity in sc dosed rat assessed as reduction in phenylquinone-induced writhing administered 15 mins prior to phenylquinone-challenge measured up to 10 mins
Rattus norvegicus [12] = test: Narcotic antagonist activity in sc dosed rat assessed as reversal of oxymorphone-induced loss of righting reflex
Mus musculus [13] = test: Analgesic activity in mouse assessed as reduction in phenylquinone-induced writhing at 1.25 mg/kg, sc administered 15 mins prior to phenylquinone-challenge measured up to 10 mins relative to control; design: scale not given: the % may be the effect or the level left; conditions: route subcutaneous
Mus musculus [14] = test: Analgesic activity in mouse assessed as reduction in phenylquinone-induced writhing at 2.5 mg/kg, sc administered 15 mins prior to phenylquinone-challenge measured up to 10 mins relative to control; design: scale not given: the % may be the effect or the level left; conditions: route subcutaneous
[15] = Mus musculus, sc, read-out: ED50
[16] = Mus musculus, sc, 10 min, read-out: ED50

SMILES: CC1C[C@]23CCN(C4CCC4)[C@H](Cc4ccc(O)cc42)[C@@]3(C)O1 (some centres not stated)
- ED50 (Mus musculus [1]): 100 mg/kg
- ED50 (Mus musculus [2]; [15]): 40 mg/kg
- ED50 (Mus musculus [3]; [16]): 3 mg/kg
- Activity (Mus musculus [4]): 33%
- ED50 (Mus musculus [5]): 33 mg/kg
- Activity (Mus musculus [6]): 50%

SMILES: C=CC[C@]12CCN(CC3CCC3)[C@H](Cc3ccc(O)cc31)[C@@]2(C)O.O=C(O)C(O)C(O)C(=O)O (stereo in doubt; (+)-23b)
- ED50 (Mus musculus [2]): >40 mg/kg
- ED50 (Mus musculus [3]): >40 mg/kg

SMILES: CC1C[C@]23CCN(C4CC4)[C@H](Cc4ccc(O)cc42)[C@@]3(C)O1 (some centres not stated)
- ED50 (Mus musculus [2]; [15]): > 40 mg/kg
- ED50 (Mus musculus [3]; [16]): 0.63 mg/kg

SMILES: C=CC[C@]12CCN(CC3CC3)[C@H](Cc3ccc(O)cc31)[C@H]2O
- ED50 (Mus musculus [3]; [16]): 0.5 mg/kg

SMILES: Br.CN1CC[C@]23CC(CBr)O[C@]2(C)[C@H]1Cc1ccccc13 (some centres not stated)
- ED50 (Mus musculus [7]): 64 mg/kg
- ED50 (Mus musculus [3]; [16]): > 40 mg/kg
- %max (Mus musculus [8]): 32%

SMILES: CC1C[C@]23CCN(C4CC4)[C@H](Cc4ccc(O)cc42)[C@H]3O1 (some centres not stated)
- ED50 (Mus musculus [2]; [15]): 30 mg/kg
- ED50 (Mus musculus [3]; [16]): 8 mg/kg
- Activity (Mus musculus [4]): 23%
- Activity (Mus musculus [6]): 67%

SMILES: CC1C[C@]23CCN(C)[C@H](Cc4ccccc42)[C@@]3(C)O1.Cl (some centres not stated)
- ED50 (Mus musculus [7]): 16 mg/kg
- ED50 (Mus musculus [3]; [16]): > 40 mg/kg
- %max (Mus musculus [8]): 16%

SMILES: CC1C[C@]23CCN(C)[C@H](Cc4ccc(O)cc42)[C@H]3O1 (some centres not stated)
- ED50 (Mus musculus [2]; [15]): 19 mg/kg
- ED50 (Mus musculus [3]; [16]): > 40 mg/kg
- Activity (Mus musculus [9]): 0%
- Activity (Mus musculus [4]): 63%

SMILES: CC1C[C@]23CCN(C)[C@H](Cc4ccccc42)[C@H]3O1 (some centres not stated)
- ED50 (Mus musculus [7]): 30 mg/kg
- ED50 (Mus musculus [3]; [16]): > 40 mg/kg
- %max (Mus musculus [8]): 16%

SMILES: CCC[C@]12CCN(CC3CC3)[C@H](Cc3ccc(O)cc31)[C@H]2O
- ED50 (Mus musculus [2]; [15]): 0.07 mg/kg
- ED50 (Mus musculus [3]; [16]): 0.62 mg/kg

SMILES: CCC[C@]12CCN(CC3CCC3)[C@H](Cc3ccc(O)cc31)[C@@]2(C)O.Cl
- ED50 (Mus musculus [2]; [15]): 0.18 mg/kg
- ED50 (Mus musculus [3]; [16]): 1.17 mg/kg
- ED50 (Rattus norvegicus [10]): 0.084 mg/kg

SMILES: C=CC[C@]12CCN(CC3CC3)[C@H](Cc3ccc(O)cc31)[C@@]2(C)O.O=C(O)C(O)C(O)C(=O)O (stereo in doubt; (+)-23a)
- ED50 (Mus musculus [2]): >40 mg/kg
- ED50 (Mus musculus [3]): >40 mg/kg

SMILES: CCC[C@]12CCN(CC3CC3)[C@H](Cc3ccc(O)cc31)[C@@]2(C)O
- ED50 (Mus musculus [2]; [15]): 44 mg/kg
- ED50 (Mus musculus [3]; [16]): 0.074 mg/kg
- ED50 (Rattus norvegicus [10]): 0.008 mg/kg
- ED50 (Rattus norvegicus [11]): 30 mg/kg
- ED50 (Rattus norvegicus [12]): 0.013 mg/kg

SMILES: C=CC[C@]12CCN(Cc3ccco3)[C@H](Cc3ccc(O)cc31)[C@@]2(C)O.O=C(O)C(=O)O
- ED50 (Mus musculus [2]; [15]): 36 mg/kg
- ED50 (Mus musculus [3]; [16]): 1.3 mg/kg
- Activity (Mus musculus [4]): 0%
- Activity (Mus musculus [6]): 66%

SMILES: CN(C)CC1C[C@]23CCN(C)[C@H](Cc4ccccc42)[C@@]3(C)O1.Cl (some centres not stated)
- ED50 (Mus musculus [7]): > 40 mg/kg
- ED50 (Mus musculus [3]; [16]): > 40 mg/kg

SMILES: C=CC[C@]12CCN(CC3CC3)[C@H](Cc3ccc(O)cc31)[C@@]2(C)O.O=C(O)C(O)C(O)C(=O)O (stereo in doubt; (-)-23a)
- ED50 (Mus musculus [2]; [15]): 44 mg/kg
- ED50 (Mus musculus [3]): 0.08 mg/kg
- ED50 (Rattus norvegicus [10]): 0.006 mg/kg
- ED50 (Rattus norvegicus [11]): 8 mg/kg

SMILES: Oc1ccc2c(c1)[C@@]13CCCC[C@@]1(O)[C@@H](C2)N(CC1CC1)CC3 [OXILORPHAN]
- ED50 (Mus musculus [2]; [15]): 13 mg/kg
- ED50 (Mus musculus [3]; [16]): 0.19 mg/kg
- ED50 (Rattus norvegicus [10]): 0.012 mg/kg
- ED50 (Rattus norvegicus [11]): 8 mg/kg
- ED50 (Rattus norvegicus [12]): 0.03 mg/kg

SMILES: CCC[C@]12CCN(CC)[C@H](Cc3ccc(O)cc31)[C@@]2(C)O
- ED50 (Mus musculus [2]; [15]): 2.1 mg/kg
- ED50 (Mus musculus [3]; [16]): > 40 mg/kg

SMILES: C=CC[C@]12CCN(CC)[C@H](Cc3ccc(O)cc31)[C@@]2(C)O.O=C(O)C(=O)O
- ED50 (Mus musculus [2]; [15]): 2 mg/kg
- ED50 (Mus musculus [3]; [16]): > 40 mg/kg

SMILES: CCC[C@]12CCN(CC3CCC3)[C@H](Cc3ccc(O)cc31)[C@H]2O
- ED50 (Mus musculus [2]; [15]): 0.24 mg/kg
- ED50 (Mus musculus [3]; [16]): 2.5 mg/kg

SMILES: CC1C[C@]23CCN(C)[C@H](Cc4ccc(O)cc42)[C@@]3(C)O1 (some centres not stated)
- ED50 (Mus musculus [2]; [15]): 18 mg/kg
- ED50 (Mus musculus [3]; [16]): > 40 mg/kg
- Activity (Mus musculus [9]): 5%
- Activity (Mus musculus [4]): 65%

SMILES: C=CC[C@]12CCN(CC3CCC3)[C@H](Cc3ccc(O)cc31)[C@@]2(C)O.O=C(O)C(O)C(O)C(=O)O (stereo in doubt; (-)-23b)
- ED50 (Mus musculus [2]): 0.06 mg/kg
- ED50 (Mus musculus [3]): 0.43 mg/kg
- ED50 (Rattus norvegicus [10]): 0.08 mg/kg
- ED50 (Rattus norvegicus [11]): 0.01 mg/kg
- ED50 (Rattus norvegicus [12]): 0.05 mg/kg

SMILES: C=CC[C@]12CCN(C)[C@H](Cc3ccc(O)cc31)[C@H]2O
- Activity (Mus musculus [13]): 1.25%
- Activity (Mus musculus [14]): 78%
- ED50 (Mus musculus [2]; [15]): 1.9 mg/kg
- ED50 (Mus musculus [3]; [16]): > 40 mg/kg

SMILES: C=CC[C@]12CCN(CC3CC3)[C@H](Cc3ccc(O)cc31)[C@@]2(C)O
- ED50 (Mus musculus [2]; [15]): 45 mg/kg

SMILES: Oc1ccc2c(c1)[C@@]13CCCC[C@@]1(O)[C@@H](C2)N(CC1CCC1)CC3 [BUTORPHANOL]
- ED50 (Mus musculus [2]; [15]): 0.05 mg/kg
- ED50 (Mus musculus [3]; [16]): 0.98 mg/kg
- ED50 (Rattus norvegicus [10]): 0.43 mg/kg
- ED50 (Rattus norvegicus [11]): 0.04 mg/kg
- ED50 (Rattus norvegicus [12]): 0.27 mg/kg

SMILES: C=CC[C@]12CCN(CC3CCC3)[C@H](Cc3ccc(O)cc31)[C@H]2O
- ED50 (Mus musculus [2]; [15]): 0.3 mg/kg
- ED50 (Mus musculus [3]; [16]): 1.8 mg/kg
